Data set [1] can be described thus: Aggregate analysis by widefield fluorescence microscopy. The class given is physicochemical. The gist of the method: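 Brightfield images were acquired alongside ThT fluorescence so that aggregates lacking ThT signal were also captured. Preformed peptide fibrils had been incubated 1 d at RT in PBS before dilution to 0.1 mg/mL in 50 µM ThT, and particles above 10 µm^2 were then counted and sized automatically.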

Data set [2] concerns HIV-1 infection of TZM-bl cells. The note with it: literature report; cited from earlier work. The text has this:
page 30: 8. Amyloid peptides from functional and pathogenic contexts Table S1 Selected amyloid peptides from protein data bases and literature reports. Note, that the peptide KLVFFAK, derived from amyloid ab was reported for retroviral transduction enhancement, however with very low efficiencies (> 4 fold compared to virus only). 33 ”+” indicates reported ThT fluorescence (ThT) or fibril formation, “0” indicates no data reported. All peptides were synthesized via Fmoc SPPS protocol and purchased . w ≥ . sequence ThT fibril pI charge hfauchere derived from original context ref. IKFLSVN + + 9.7 ...

[3] abbreviates: Fig S8 panels A, C, 3 fields of 1330 µm x 1330 µm.
Where [4] appears, read: Fig S8 panels B, D, average aggregate area, 3 fields of 1330 µm x 1330 µm.
[5] abbreviates: Fig S8 panels B, D, median aggregate area, 3 fields of 1330 µm x 1330 µm.
[6] abbreviates: Fig S8 panels B, D, 3 fields of 1330 µm x 1330 µm.
The mark [7] stands for this setting: Fig S8 panels B, D, widefield fluorescence microscopy, 3 fields of 1330 µm x 1330 µm.

With HHHHKIKIQINMYYYY [TM16], in data set [1] (Fig S8 panels A, C), the “Avg Area in 3 *(1330 µm *1330 µm)” value came to 97.09, the “Log 10 Number of aggregates in 3 * (1330 µm *1330 µm)” value (“Log 10 Number of aggregates in 3 *” for short) worked out at 2.3686, the “Median Area in 3 * (1330 µm *1330 µm)” value came to 27.74 and the “log Avg Area in 3 * ( (1330 µm *1330 µm))” value (“log Avg Area in 3 *” for short) is 1.987. Further, in data set [1] (Fig S8 panels A, C), the “log Median Area in 3 * ( (1330 µm *1330 µm))” value (from here on “log Median Area in 3 *”) is listed as 1.443 and the “log Total Area of all particles in 3 * (1330 µm *1330 µm)” value (“log Total Area of all particles in 3 *” for short) is 4.356. Further, the “Number of aggregates in 3 * (1330 µm *1330 µm)” value in data set [1] (setting [3]) is 233.7. In addition, in data set [1] (setting [4]), the “Avg Area in 3 *(1330 µm *1330 µm)” value is recorded as 97.09. For the same substance, the “Median Area in 3 * (1330 µm *1330 µm)” value in data set [1] (setting [5]) was 27.74. Further, in data set [1] (setting [6]), the “Total Area of all particles in 3 * (1330 µm *1330 µm)” value is recorded as 22686.609. Moreover, the “Number of aggregates in 3 * (1330 µm *1330 µm)” value in data set [1] (setting [7]) stood at 233.7.
With HIHIQIC [CN12], in data set [1] (Fig S8 panels A, C), the “Avg Area in 3 *(1330 µm *1330 µm)” value is recorded as 747.6, the “Log 10 Number of aggregates in 3 *” value came out at 1.523, the “Median Area in 3 * (1330 µm *1330 µm)” value was determined as 85.979 and the “log Avg Area in 3 *” value is reported as 2.874. Further, in data set [1] (Fig S8 panels A, C), the “log Median Area in 3 *” value was determined as 1.934 and the “log Total Area of all particles in 3 *” value is reported as 4.397. Further, in data set [1] (setting [3]), the “Number of aggregates in 3 * (1330 µm *1330 µm)” value was found to be 33.33. Besides, in data set [1] (setting [4]), the “Avg Area in 3 *(1330 µm *1330 µm)” value was determined as 747.6. Further, the “Median Area in 3 * (1330 µm *1330 µm)” value in data set [1] (setting [5]) was 85.979. Also, in data set [1] (setting [6]), the “Total Area of all particles in 3 * (1330 µm *1330 µm)” value was 24920.46633. For the same substance, the “Number of aggregates in 3 * (1330 µm *1330 µm)” value in data set [1] (setting [7]) is listed as 33.33.
For KIKIQIN [JGB3], in data set [1] (Fig S8 panels A, C), the “Avg Area in 3 *(1330 µm *1330 µm)” value is recorded as 197.4, the “Log 10 Number of aggregates in 3 *” value came out at 0.6021, the “Median Area in 3 * (1330 µm *1330 µm)” value is listed as 197.8005 and the “log Avg Area in 3 *” value is recorded as 2.295. In addition, in data set [1] (Fig S8 panels A, C), the “log Median Area in 3 *” value amounted to 2.296 and the “log Total Area of all particles in 3 *” value is 2.897. Further, the “Number of aggregates in 3 * (1330 µm *1330 µm)” value in data set [1] (setting [3]) stood at 4. Also, in data set [1] (setting [4]), the “Avg Area in 3 *(1330 µm *1330 µm)” value stood at 197.4. The “Median Area in 3 * (1330 µm *1330 µm)” value in data set [1] (setting [5]) is recorded as 197.8005. Besides, in data set [1] (setting [6]), the “Total Area of all particles in 3 * (1330 µm *1330 µm)” value was 789.7. In addition, the “Number of aggregates in 3 * (1330 µm *1330 µm)” value in data set [1] (setting [7]) was found to be 4.
In the case of KIKQIIN [JGA3], in data set [1] (Fig S8 panels A, C), the “Avg Area in 3 *(1330 µm *1330 µm)” value turned out to be 51.51, the “Log 10 Number of aggregates in 3 *” value was 1.067, the “Median Area in 3 * (1330 µm *1330 µm)” value amounted to 15.7 and the “log Avg Area in 3 *” value was 1.712. In data set [1] (Fig S8 panels A, C), the “log Median Area in 3 *” value is 1.196 and the “log Total Area of all particles in 3 *” value was determined as 2.779. In addition, the “Number of aggregates in 3 * (1330 µm *1330 µm)” value in data set [1] (setting [3]) turned out to be 11.67. Moreover, the “Avg Area in 3 *(1330 µm *1330 µm)” value in data set [1] (setting [4]) is reported as 51.51. Further, in data set [1] (setting [5]), the “Median Area in 3 * (1330 µm *1330 µm)” value amounted to 15.7. Moreover, the “Total Area of all particles in 3 * (1330 µm *1330 µm)” value in data set [1] (setting [6]) is recorded as 600.94. The “Number of aggregates in 3 * (1330 µm *1330 µm)” value in data set [1] (setting [7]) turned out to be 11.67.
In the case of KLVFFAK [reference compound], the “retroviral transduction enhancement compared to virus only” value in data set [2] is recorded as more than 4 fold.
On to RGDSGGGGGGKIKIQIC [TM114 / RC17], for which, in data set [1] (Fig S8 panels A, C), the “Avg Area in 3 *(1330 µm *1330 µm)” value was found to be 372.8, the “Log 10 Number of aggregates in 3 *” value worked out at 1.857, the “Median Area in 3 * (1330 µm *1330 µm)” value was determined as 53.0945 and the “log Avg Area in 3 *” value was 2.572. Also, in data set [1] (Fig S8 panels A, C), the “log Median Area in 3 *” value is recorded as 1.725 and the “log Total Area of all particles in 3 *” value stood at 4.429. In addition, the “Number of aggregates in 3 * (1330 µm *1330 µm)” value in data set [1] (setting [3]) is reported as 72. The “Avg Area in 3 *(1330 µm *1330 µm)” value in data set [1] (setting [4]) was determined as 372.8. Besides, in data set [1] (setting [5]), the “Median Area in 3 * (1330 µm *1330 µm)” value is on record as 53.0945. For the same substance, the “Total Area of all particles in 3 * (1330 µm *1330 µm)” value in data set [1] (setting [6]) turned out to be 26843.97667. Moreover, the “Number of aggregates in 3 * (1330 µm *1330 µm)” value in data set [1] (setting [7]) amounted to 72.

(Values after PMC10447463, “Data-mining unveils structure–property–activity correlation of viral infectivity enhancing self-assembling peptides” (Nature Communications, 2023).)
